≈ marks a conversion by molar mass, not a printed value.
What was measured:
Assay type in all cases: functional
[1] = tested on: Pseudomonas aeruginosa; assay: Antibacterial activity against Pseudomonas aeruginosa ATCC 27753
[2] = tested on: Staphylococcus aureus; assay: Antibacterial activity against Staphylococcus aureus ATCC 105487
[3] = tested on: Mycobacterium tuberculosis; assay: Antibacterial activity against Mycobacterium tuberculosis H37Rv by dilution method
[4] = tested on: Staphylococcus aureus; assay: Antibacterial activity against Staphylococcus aureus SA52 isolate
[5] = tested on: Escherichia coli; assay: Antibacterial activity against Escherichia coli ATCC 25922
[6] = tested on: Bacillus subtilis; assay: Antibacterial activity against Bacillus subtilis ATCC 6633
[7] = tested on: Kluyveromyces marxianus; assay: Antifungal activity against Candida pseudotropicalis by dilution method
[8] = tested on: Mycobacterium tuberculosis; assay: Antibacterial activity against Mycobacterium tuberculosis H160 by dilution method
[9] = tested on: Staphylococcus aureus; assay: Antibacterial activity against Staphylococcus aureus SA85 isolate
[10] = tested on: Staphylococcus aureus; assay: Antibacterial activity against Staphylococcus aureus SA87 isolate
[11] = tested on: Candida albicans; assay: Antifungal activity against Candida albicans by dilution method
[12] = tested on: Staphylococcus aureus; assay: Antibacterial activity against Staphylococcus aureus ATCC 25923
[13] = tested on: Mycobacterium tuberculosis; assay: Antibacterial activity against Mycobacterium tuberculosis H190 by dilution method
[14] = tested on: Enterococcus faecalis; assay: Antibacterial activity against Enterococcus faecalis ATCC 29212
[15] = Mycobacterium tuberculosis, H37Rv, read-out: MIC
[16] = Bacillus subtilis, ATCC 6633, read-out: MIC
[17] = Mycobacterium tuberculosis, H160, read-out: MIC
[18] = Staphylococcus aureus, read-out: MIC

Structure (SMILES)	MIC [1]	MIC [2]	MIC [3, 15]	MIC [4]	MIC [5]	MIC [6, 16]	MIC [7]	MIC [8, 17]	MIC [9]	MIC [10, 18]	MIC [11]	MIC [12]	MIC [13]	MIC [14]	MIC [6]	MIC [10]	MIC [3]	MIC [8]
CC/C=C\C/C=C\C/C=C\CCCCCCCC(=O)OC(COC(=O)CCCCCCC)CO[C@@H]1O[C@H](CO)[C@H](O)[C@H](O)[C@H]1O (stereo not given in full)	> 128 µg/mL	> 128 µg/mL	128 µg/mL (≈ 200 µM)	> 128 µg/mL	> 128 µg/mL	128 µg/mL (≈ 200 µM)	> 128 µg/mL	128 µg/mL (≈ 200 µM)	> 128 µg/mL	64 µg/mL (≈ 99.9 µM)	> 128 µg/mL	> 128 µg/mL	128 µg/mL (≈ 200 µM)	> 128 µg/mL				
CCCCCCCCCCCC(=O)OCC(CO[C@@H]1O[C@H](CO)[C@H](O)[C@H](O)[C@H]1O)OC(=O)CCCCCCCCCCC (stereo not given in full)	> 128 µg/mL	> 128 µg/mL	> 128 µg/mL	> 128 µg/mL	> 128 µg/mL	> 128 µg/mL	> 128 µg/mL	> 128 µg/mL	> 128 µg/mL	> 128 µg/mL	> 128 µg/mL	> 128 µg/mL	> 128 µg/mL	> 128 µg/mL				
CCCCC/C=C\C/C=C\CCCCCCCC(=O)OC(COC(=O)CCCCCCCCC)CO[C@@H]1O[C@H](CO)[C@H](O)[C@H](O)[C@H]1O (stereo not given in full)	> 128 µg/mL	64 µg/mL (≈ 95.4 µM)	> 128 µg/mL	> 128 µg/mL	> 128 µg/mL	128 µg/mL (≈ 191 µM)	> 128 µg/mL	> 128 µg/mL	64 µg/mL (≈ 95.4 µM)	64 µg/mL (≈ 95.4 µM)	> 128 µg/mL	> 128 µg/mL	> 128 µg/mL	128 µg/mL (≈ 191 µM)				
CCCCCCCC/C=C\CCCCCCCC(=O)OC(COC(=O)CCCCCCCCC)CO[C@@H]1O[C@H](CO)[C@H](O)[C@H](O)[C@H]1O (stereo not given in full)	> 128 µg/mL	> 128 µg/mL	> 128 µg/mL	> 128 µg/mL	> 128 µg/mL	32 µg/mL (≈ 47.6 µM)	> 128 µg/mL	> 128 µg/mL	128 µg/mL (≈ 190 µM)	> 128 µg/mL	> 128 µg/mL	128 µg/mL (≈ 190 µM)	> 128 µg/mL	> 128 µg/mL				
CC/C=C\C/C=C\C/C=C\CCCCCCCC(=O)OC(COC(=O)CCCCCCCCC)CO[C@@H]1O[C@H](CO)[C@H](O)[C@H](O)[C@H]1O (stereo not given in full)	> 128 µg/mL	> 128 µg/mL	> 128 µg/mL	> 128 µg/mL	> 128 µg/mL	> 128 µg/mL	> 128 µg/mL	> 128 µg/mL	64 µg/mL (≈ 95.7 µM)	32 µg/mL (≈ 47.8 µM)	> 128 µg/mL	> 128 µg/mL	> 128 µg/mL	> 128 µg/mL				
CC/C=C\C/C=C\C/C=C\CCCCCCCC(=O)OC(COC(=O)CCCCCCCCC)CO[C@@H]1O[C@H](CO)[C@@H](O)[C@H](O)[C@H]1O (stereo not given in full)	> 128 µg/mL	> 128 µg/mL	> 128 µg/mL	> 128 µg/mL	> 128 µg/mL	> 128 µg/mL	> 128 µg/mL	> 128 µg/mL	64 µg/mL (≈ 95.7 µM)	32 µg/mL (≈ 47.8 µM)	> 128 µg/mL	> 128 µg/mL	> 128 µg/mL	> 128 µg/mL				
CCCCCCCC/C=C\CCCCCCCC(=O)OCC(CO[C@@H]1O[C@H](CO)[C@H](O)[C@H](O)[C@H]1O)OC(=O)CCCCCCC/C=C\CCCCCCCC (stereo not given in full)	> 128 µg/mL	> 128 µg/mL	> 128 µg/mL	> 128 µg/mL	> 128 µg/mL	> 128 µg/mL	> 128 µg/mL	> 128 µg/mL	> 128 µg/mL	> 128 µg/mL	> 128 µg/mL	> 128 µg/mL	> 128 µg/mL	> 128 µg/mL				
CCCCC/C=C\C/C=C\CCCCCCCC(=O)OC(COC(=O)CCCCCCC)CO[C@@H]1O[C@H](CO)[C@@H](O)[C@H](O)[C@H]1O (stereo not given in full)	> 128 µg/mL	> 128 µg/mL	64 µg/mL (≈ 99.6 µM)	> 128 µg/mL	> 128 µg/mL	128 µg/mL (≈ 199 µM)	> 128 µg/mL	128 µg/mL (≈ 199 µM)	> 128 µg/mL	64 µg/mL (≈ 99.6 µM)	> 128 µg/mL	> 128 µg/mL	64 µg/mL (≈ 99.6 µM)	> 128 µg/mL				
CCCCC/C=C\C/C=C\CCCCCCCC(=O)OCC(CO[C@@H]1O[C@H](CO)[C@@H](O)[C@H](O)[C@H]1O)OC(=O)CCCCCCC/C=C\C/C=C\CCCCC (stereo in doubt; 9g)			64 µg/mL (≈ 82.1 µM)					64 µg/mL (≈ 82.1 µM)					128 µg/mL (≈ 164 µM)		128 µg/mL (≈ 164 µM)	64 µg/mL (≈ 82.1 µM)		
CCCCC/C=C\C/C=C\CCCCCCCC(=O)OCC(CO[C@@H]1O[C@H](CO)[C@@H](O)[C@H](O)[C@H]1O)OC(=O)CCCCCCC/C=C\C/C=C\CCCCC (stereo in doubt; 9q)	> 128 µg/mL	> 128 µg/mL		> 128 µg/mL	> 128 µg/mL	128 µg/mL (≈ 164 µM)	> 128 µg/mL		> 128 µg/mL	128 µg/mL (≈ 164 µM)	> 128 µg/mL	> 128 µg/mL		> 128 µg/mL			128 µg/mL (≈ 164 µM)	128 µg/mL (≈ 164 µM)
